Assay results published in the supplement of paper PMC10307832.

Tests used:
Assay in all cases: relative viability (nuclei count vs DMSO), 5 days (fraction); higher = more cells survive
ChaGo-K-1 = test system: ChaGo-K-1
Procedure, shortened: (§1)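 After 5 days of treatment, lung cancer cells in 1536-well plates were fixed and stained in a single step (final 0.05% Triton X-100, 1% formaldehyde, 1 ug/ml Hoechst) and their nuclei counted on 4× images. Treatment had been applied by pin tool the day after seeding as one drug alone or as a fixed anchor-drug dose with five library-drug doses (not always all listed) in √10 steps. Relative viability is the nuclei count of treated wells divided by that of vehicle wells, and values are medians of duplicate plates.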

NCI-H2126 = test system: NCI-H2126
Procedure, shortened: as §1

NCI-H2347 = test system: NCI-H2347
Procedure, shortened: as §1

NCI-H2170 = test system: NCI-H2170
Procedure, shortened: as §1

NCI-H1793 = test system: NCI-H1793
Procedure, shortened: as §1

LOU-NH91 = test system: LOU-NH91
Procedure, shortened: as §1

LCLC-103H = test system: LCLC-103H
Procedure, shortened: as §1

HOP-62 = test system: HOP-62
Procedure, shortened: as §1

NCI-H520 = test system: NCI-H520
Procedure, shortened: as §1

NCI-H1437 = test system: NCI-H1437
Procedure, shortened: as §1

NCI-H441 = test system: NCI-H441
Procedure, shortened: as §1

NCI-H2023 = test system: NCI-H2023
Procedure, shortened: as §1

NCI-H650 = test system: NCI-H650
Procedure, shortened: as §1

NCI-H23 = test system: NCI-H23
Procedure, shortened: as §1

NCI-H647 = test system: NCI-H647
Procedure, shortened: as §1

NCI-H727 = test system: NCI-H727
Procedure, shortened: as §1

SW 1573 = test system: SW 1573
Procedure, shortened: as §1

NCI-H460 = test system: NCI-H460
Procedure, shortened: as §1

EMC-BAC-2 = test system: EMC-BAC-2
Procedure, shortened: as §1

NCI-H2405 = test system: NCI-H2405
Procedure, shortened: as §1

EPLC-272H = test system: EPLC-272H
Procedure, shortened: as §1

NCI-H2009 = test system: NCI-H2009
Procedure, shortened: as §1

Compound: O=c1[nH]c2ccccc2n1C1CCN(CCCC(c2ccc(F)cc2)c2ccc(F)cc2)CC1 [Pimozide] + Cc1nc(Nc2ncc(C(=O)Nc3c(C)cccc3Cl)s2)cc(N2CCN(CCO)CC2)n1 [Dasatinib] (partner 0.075 µM)
- relative viability (ChaGo-K-1; first compound 0.08 µM): 0.613
- relative viability (ChaGo-K-1; first compound 0.253 µM): 0.586
- relative viability (ChaGo-K-1; first compound 0.8 µM): 0.509
- relative viability (ChaGo-K-1; first compound 2.53 µM): 0.522
- relative viability (ChaGo-K-1; first compound 8 µM): 0.595
- relative viability (NCI-H2126; first compound 0.08 µM): 0.687
- relative viability (NCI-H2126; first compound 0.253 µM): 0.548
- relative viability (NCI-H2126; first compound 0.8 µM): 0.568
- relative viability (NCI-H2126; first compound 2.53 µM): 0.607
- relative viability (NCI-H2126; first compound 8 µM): 0.605
- relative viability (NCI-H2347; first compound 0.253 µM): 0.34
- relative viability (NCI-H2347; first compound 0.8 µM): 0.295
- relative viability (NCI-H2347; first compound 2.53 µM): 0.349
- relative viability (NCI-H2347; first compound 8 µM): 0.343
- relative viability (NCI-H2170; first compound 0.08 µM): 0.432
- relative viability (NCI-H2170; first compound 0.253 µM): 0.475
- relative viability (NCI-H2170; first compound 0.8 µM): 0.627
- relative viability (NCI-H2170; first compound 2.53 µM): 0.555
- relative viability (NCI-H2170; first compound 8 µM): 0.599
- relative viability (NCI-H1793; first compound 0.253 µM): 0.388
- relative viability (NCI-H1793; first compound 0.8 µM): 0.343
- relative viability (NCI-H1793; first compound 2.53 µM): 0.391
- relative viability (NCI-H1793; first compound 8 µM): 0.35
- relative viability (LOU-NH91; first compound 0.08 µM): 0.44
- relative viability (LOU-NH91; first compound 0.253 µM): 0.564
- relative viability (LOU-NH91; first compound 0.8 µM): 0.537
- relative viability (LOU-NH91; first compound 2.53 µM): 0.572
- relative viability (LOU-NH91; first compound 8 µM): 0.579
- relative viability (LCLC-103H; first compound 0.08 µM): 0.531
- relative viability (LCLC-103H; first compound 0.253 µM): 0.373
- relative viability (LCLC-103H; first compound 0.8 µM): 0.371
- relative viability (LCLC-103H; first compound 2.53 µM): 0.518
- relative viability (LCLC-103H; first compound 8 µM): 0.549
- relative viability (HOP-62; first compound 0.08 µM): 0.698
- relative viability (HOP-62; first compound 0.253 µM): 0.617
- relative viability (HOP-62; first compound 2.53 µM): 0.685
- relative viability (HOP-62; first compound 8 µM): 0.651
- relative viability (NCI-H520; first compound 0.08 µM): 0.216
- relative viability (NCI-H520; first compound 0.253 µM): 0.184
- relative viability (NCI-H520; first compound 0.8 µM): 0.185
- relative viability (NCI-H520; first compound 2.53 µM): 0.176
- relative viability (NCI-H520; first compound 8 µM): 0.225
- relative viability (NCI-H1437; first compound 0.08 µM): 0.483
- relative viability (NCI-H1437; first compound 0.253 µM): 0.43
- relative viability (NCI-H1437; first compound 0.8 µM): 0.402
- relative viability (NCI-H1437; first compound 2.53 µM): 0.289
- relative viability (NCI-H1437; first compound 8 µM): 0.249
- relative viability (NCI-H441; first compound 0.08 µM): 0.86
- relative viability (NCI-H441; first compound 0.253 µM): 0.724
- relative viability (NCI-H441; first compound 0.8 µM): 0.605
- relative viability (NCI-H441; first compound 2.53 µM): 0.387
- relative viability (NCI-H441; first compound 8 µM): 0.521
- relative viability (NCI-H2023; first compound 0.08 µM): 0.497
- relative viability (NCI-H2023; first compound 0.253 µM): 0.547
- relative viability (NCI-H2023; first compound 0.8 µM): 0.518
- relative viability (NCI-H2023; first compound 2.53 µM): 0.438
- relative viability (NCI-H2023; first compound 8 µM): 0.451
- relative viability (NCI-H650; first compound 0.08 µM): 0.501
- relative viability (NCI-H650; first compound 0.253 µM): 0.454
- relative viability (NCI-H650; first compound 0.8 µM): 0.453
- relative viability (NCI-H650; first compound 2.53 µM): 0.487
- relative viability (NCI-H650; first compound 8 µM): 0.498
- relative viability (NCI-H23; first compound 0.08 µM): 0.887
- relative viability (NCI-H23; first compound 0.253 µM): 0.84
- relative viability (NCI-H23; first compound 0.8 µM): 0.71
- relative viability (NCI-H23; first compound 2.53 µM): 0.679
- relative viability (NCI-H23; first compound 8 µM): 0.802
- relative viability (NCI-H647; first compound 0.08 µM): 0.41
- relative viability (NCI-H647; first compound 0.253 µM): 0.233
- relative viability (NCI-H647; first compound 0.8 µM): 0.198
- relative viability (NCI-H647; first compound 2.53 µM): 0.179
- relative viability (NCI-H647; first compound 8 µM): 0.162
- relative viability (NCI-H727; first compound 0.08 µM): 0.36
- relative viability (NCI-H727; first compound 0.253 µM): 0.347
- relative viability (NCI-H727; first compound 0.8 µM): 0.4
- relative viability (NCI-H727; first compound 2.53 µM): 0.358
- relative viability (NCI-H727; first compound 8 µM): 0.405
- relative viability (SW 1573; first compound 0.08 µM): 0.522
- relative viability (SW 1573; first compound 0.253 µM): 0.447
- relative viability (SW 1573; first compound 0.8 µM): 0.5
- relative viability (SW 1573; first compound 2.53 µM): 0.437
- relative viability (SW 1573; first compound 8 µM): 0.692
- relative viability (NCI-H460; first compound 0.08 µM): 0.537
- relative viability (NCI-H460; first compound 0.253 µM): 0.486
- relative viability (NCI-H460; first compound 0.8 µM): 0.529
- relative viability (NCI-H460; first compound 2.53 µM): 0.483
- relative viability (NCI-H460; first compound 8 µM): 0.447
- relative viability (EMC-BAC-2; first compound 0.08 µM): 0.351
- relative viability (EMC-BAC-2; first compound 0.253 µM): 0.274
- relative viability (EMC-BAC-2; first compound 0.8 µM): 0.331
- relative viability (EMC-BAC-2; first compound 2.53 µM): 0.285
- relative viability (EMC-BAC-2; first compound 8 µM): 0.218
- relative viability (NCI-H2405; first compound 0.08 µM): 0.219
- relative viability (NCI-H2405; first compound 0.253 µM): 0.228
- relative viability (NCI-H2405; first compound 0.8 µM): 0.198
- relative viability (NCI-H2405; first compound 2.53 µM): 0.187
- relative viability (NCI-H2405; first compound 8 µM): 0.188
- relative viability (EPLC-272H; first compound 0.08 µM): 0.298
- relative viability (EPLC-272H; first compound 0.253 µM): 0.322
- relative viability (EPLC-272H; first compound 0.8 µM): 0.385
- relative viability (EPLC-272H; first compound 2.53 µM): 0.293
- relative viability (EPLC-272H; first compound 8 µM): 0.215
- relative viability (NCI-H2009; first compound 0.08 µM): 0.307
- relative viability (NCI-H2009; first compound 0.253 µM): 0.326
- relative viability (NCI-H2009; first compound 0.8 µM): 0.328
- relative viability (NCI-H2009; first compound 2.53 µM): 0.214
- relative viability (NCI-H2009; first compound 8 µM): 0.188
